# Results as given in publication PMC5469273, “Discovery of Novel Small-Molecule Inhibitors of LIM Domain Kinase for Inhibiting HIV-1” (Journal of Virology, 2017).
# Key:
# HIV-1(NL4-3) = assay type: cell-based; conditions: for Infectivity (percentage of GFP+ cells): 100 μM, pretreated 1 h, HIV-1(NL4-3) 3 h, washed, viable cells only, paired DMSO controls 1.76-3.37%; for X4 HIV infection in screening: at nontoxic dosages, Fig. 1C and 2
# in vitro = conditions: human
# LIMK1 = LIMK1 (Homo sapiens, UniProt P53667); assay: LIMK1 biochemical assay, 10-dose IC50; set-up: purified from insect cells; His; purchased Reaction Biology Corporation, Malvern, PA; host or cells: insect cells (coexpressed with ROCK1); conditions: purified LIMK1; 10 μM ATP, 1 μM cofilin; ≥2 in vitro kinase assays; read-out: LIMK1 Biochemical Inhibition IC50
# LIMK1, sequence (P53667 285-638): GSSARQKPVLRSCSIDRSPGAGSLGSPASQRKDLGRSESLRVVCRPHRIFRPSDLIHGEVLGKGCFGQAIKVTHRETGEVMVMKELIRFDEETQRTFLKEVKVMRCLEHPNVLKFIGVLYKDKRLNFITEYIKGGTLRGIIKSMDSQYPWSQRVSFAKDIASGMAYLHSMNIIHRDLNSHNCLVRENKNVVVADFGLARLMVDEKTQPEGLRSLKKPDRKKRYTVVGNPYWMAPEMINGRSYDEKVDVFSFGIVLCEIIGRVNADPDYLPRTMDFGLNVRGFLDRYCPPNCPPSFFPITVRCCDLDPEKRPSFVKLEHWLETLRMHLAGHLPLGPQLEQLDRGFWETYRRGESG
# Excerpt: We selected R10015 from the potential LIMK inhibitors for further detailed mechanistic studies. The synthesis, purification, and biochemical characterization of R10015 are described in Materials and Methods below and shown in Fig. 3. We performed a cell-free assay to measure R10015 inhibition of the LIM domain kinase using purified human LIMK1 and its substrate, cofilin. […] We also performed profiling of R10015 against a panel of 62 kinases (Table 2).
# Biochemical LIMK1 assays for all inhibitors were carried out by Reaction Biology Corporation, Malvern, PA, and followed the protocols described on its website. […] Reactions were carried out at 10 μM ATP, 1 μM substrate (cofilin), and 50 nM LIMK1 (final concentrations). […] The reagents were as follows: base reaction buffer, 20 mM HEPES (pH 7.5), 10 mM MgCl2, 1 mM EGTA, 0.02% Brij 35, 0.02 mg/ml bovine serum albumin (BSA), 0.1 mM Na3VO4, 2 mM dithiothreitol (DTT), 1% DMSO. No additional cofactors were added to the reaction mixture. The reaction procedures were as follows. (i) The indicated substrate was prepared in freshly made base reaction buffer. (ii) Any required cofactors were delivered to the substrate solution described above. (iii) The indicated kinase was delivered into the substrate solution and gently mixed. (iv) The compounds in DMSO were delivered into the kinase reaction mixture. (v) [^33P]ATP (final specific activity, 0.01 μCi/μl) was delivered into the reaction mixture to initiate the reaction. […] (viii) The filters were washed extensively in 0.1% phosphoric acid.
# [1] = oral gavage 20 mg/kg daily, 7 days
smiles,measurement,setting,value
"Cc1cc(C#N)cc(C)c1Oc1nc(Nc2ccc(C#N)cc2)nc(N)c1Br [Etravirine, etravirine, reference compound]",HIV-dependent GFP expression (GFP+ cells),"HIV-1(NL4-3); etravirine 100 nM, HIV(NL4-3), 48 h, Fig. 1B",0.01%
Cc1c[nH]c2ncnc(N3CCC(c4nc5cc(C#N)ccc5[nH]4)CC3)c12 [Compound R8212],Infectivity (percentage of GFP+ cells),HIV-1(NL4-3); 48 h,2.22%
same,X4 HIV infection in screening,HIV-1(NL4-3),blocked
same,viability at 100 µM,in vitro,93.3%
same,IC50,LIMK1,0.044 ± 0.006 µM
CC1(c2nc3ccc(C(=O)NC4CCC4)cc3[nH]2)CCN(c2ncnc3[nH]ccc23)CC1 [Compound R8482],Infectivity (percentage of GFP+ cells),HIV-1(NL4-3); 48 h,1.10%
same,X4 HIV infection in screening,HIV-1(NL4-3),blocked
same,viability at 100 µM,in vitro,93.4%
same,IC50,LIMK1,0.041 ± 0.004 µM
Cc1c[nH]c2ncnc(-c3ccc(-c4nc5ccc(C(=O)NC6CCCC6)cc5[nH]4)c(F)c3)c12 [Compound R8584],Infectivity (percentage of GFP+ cells),HIV-1(NL4-3); 48 h,0.65%
same,X4 HIV infection in screening,HIV-1(NL4-3),blocked
same,viability at 100 µM,in vitro,93.7%
same,IC50,LIMK1,0.05 ± 0.007 µM
CCOC(=O)c1ccc2nc(N3CCN(c4ncnc5[nH]cc(Cl)c45)[C@@H](C)C3)[nH]c2c1 [Compound R10659],Infectivity (percentage of GFP+ cells),HIV-1(NL4-3); 48 h,1.30%
same,X4 HIV infection in screening,HIV-1(NL4-3),blocked
same,viability at 100 µM,in vitro,89.8%
CC(C)NC(=O)c1ccc2[nH]c(N3CCN(c4ncnc5[nH]cc(Cl)c45)C[C@@H]3C)nc2c1 [Compound R10543],Infectivity (percentage of GFP+ cells),HIV-1(NL4-3); 48 h,0.75%
same,X4 HIV infection in screening,HIV-1(NL4-3),blocked
same,viability at 100 µM,in vitro,90.1%
same,IC50,LIMK1,0.005 ± 0.002 µM
Cc1c[nH]c2ncnc(-c3ccc(NC(=O)N(CCO)c4ccccc4)cc3)c12 [Compound R7826],Infectivity (percentage of GFP+ cells),HIV-1(NL4-3); 48 h,1.02%
same,X4 HIV infection in screening,HIV-1(NL4-3),blocked
same,body weight over a week compared to PBS control,[1],gained weight
same,viability at 100 µM,in vitro,96.2%
